Source: patent publication US8415469B2, “Compounds and methods for kinase modulation, and indications therefor” (Plexxikon Inc., priority 2005, dated 2013)

Columns and labels:
Format in all cases: biochemical
Flt1 = biological target: T1, Flt1 (Homo sapiens, UniProt P17948); assay: AlphaScreen kinase assay, Flt1; conditions: read-out: IC50, activity toward kinase Flt1
T1 construct: P1826.pETN6 BI-PTP FLT1 M799-D1165-X WT; His6 (N); made in house; host or cells: E. coli (PTP1B co-expressed)
T1 sequence (P17948 with tags, fused parts or gaps): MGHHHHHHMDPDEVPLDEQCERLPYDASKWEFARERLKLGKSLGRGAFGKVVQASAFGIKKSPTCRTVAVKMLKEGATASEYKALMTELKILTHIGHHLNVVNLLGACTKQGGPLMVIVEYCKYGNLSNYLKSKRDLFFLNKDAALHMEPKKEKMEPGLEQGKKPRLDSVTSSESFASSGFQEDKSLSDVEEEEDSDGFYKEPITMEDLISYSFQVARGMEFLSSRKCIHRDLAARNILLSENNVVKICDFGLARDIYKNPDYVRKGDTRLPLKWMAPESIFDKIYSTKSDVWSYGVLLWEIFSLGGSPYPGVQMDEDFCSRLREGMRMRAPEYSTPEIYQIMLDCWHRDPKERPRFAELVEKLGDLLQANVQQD

Fms = biological target: T2, Fms (Homo sapiens, UniProt P07333); assay: AlphaScreen kinase assay, Fms; conditions: read-out: IC50, activity toward kinase Fms
T2 construct: purchased Upstate Biotechnology

B-Raf V600E = biological target: T3, B-Raf V600E (Homo sapiens, UniProt P15056, V600E); assay: AlphaScreen kinase assay, B-Raf V600E; conditions: read-out: IC50, activity toward kinase B-Raf V600E
T3 construct: P4254. pFastBacBD-CDC37 BRAF D437-K722-X, V600E; His6 with pFastBac HT leader (TEV site) (N); made in house; host or cells: Sf9 (baculovirus; chaperone CDC37 co-expressed)
Source text: (§1) AlphaScreen assay was used to screen additional kinases. The assay is similarly dependent on the phosphorylation of a peptide substrate. In this assay, an antibody that recognizes phosphorylated substrate is bound to an acceptor bead. The peptide substrate is attached to biotin, which binds to a donor head that contains streptavidin. Thus phosphorylated substrate is bound by antibody and streptavidin, bringing the donor and acceptor heads into close proximity when kinase is not inhibited. The donor produces singlet oxygen which results in emission from the acceptor when they are in close proximity. Conversely, when kinase is inhibited, the donor and acceptor beads are not associated and the emission from the acceptor is reduced.
(§2) AlphaScreen assays were done using compounds dissolved in DMSO to a concentration of 20 mM. The compounds were diluted accordingly to the desired final concentrations in each sample well, using 1:3 serial dilution for a total of 8 concentration points. Plates were prepared such that each kinase reaction is 20 μl in 1× kinase buffer, 5% DMSO and 10 μM ATP. After incubation of the kinase reaction for 1 hour at room temperature, 5 μl of donor beads in stop buffer (50 mM EDTA in 1× kinase buffer) was added, the sample was mixed and incubated for 20 minutes at room temperature before adding 5 μl of acceptor beads in stop buffer. The samples were incubated for 60 minutes at room temperature and the signal per well was read on AlphaQuest reader.

Kit = biological target: T4, Kit (Homo sapiens, UniProt P10721); assay: AlphaScreen kinase assay, Kit; conditions: read-out: IC50, activity toward kinase Kit
T4 construct: P1332.N6 BI PTP KIT M552-K948-X COD; His6 (N); made in house; host or cells: E. coli (PTP1B co-expressed)

B-Raf = biological target: T5, B-Raf (Homo sapiens, UniProt P15056); assay: AlphaScreen kinase assay, B-Raf; conditions: read-out: IC50, activity toward kinase B-Raf
T5 construct: purchased Upstate Biotechnology
Source text: as §1, §2

FGFR1 = biological target: T6, FGFR1 (Homo sapiens, UniProt P11362, C488A/C584S); assay: AlphaScreen kinase assay, FGFR1; conditions: read-out: IC50, activity toward kinase FGFR
T6 construct: P1351.pET N6 BI-PTP FGFR A458-E765-X C488A, C584S; made in house; host or cells: E. coli (PTP1B co-expressed)

c-Raf-1 = biological target: T7, c-Raf-1 (Homo sapiens, UniProt P04049); assay: AlphaScreen kinase assay, c-Raf-1; conditions: read-out: IC50, activity toward kinase c-Raf-1
T7 construct: purchased Upstate Biotechnology

Ret = biological target: T8, Ret (Homo sapiens, UniProt P07949); assay: AlphaScreen kinase assay, Ret; conditions: read-out: IC50, activity toward kinase Ret
T8 construct: P1378.pET-SF BI-PTP RET H661-R1012 HIS; made in house
T8 sequence (P07949 with tags, fused parts or gaps): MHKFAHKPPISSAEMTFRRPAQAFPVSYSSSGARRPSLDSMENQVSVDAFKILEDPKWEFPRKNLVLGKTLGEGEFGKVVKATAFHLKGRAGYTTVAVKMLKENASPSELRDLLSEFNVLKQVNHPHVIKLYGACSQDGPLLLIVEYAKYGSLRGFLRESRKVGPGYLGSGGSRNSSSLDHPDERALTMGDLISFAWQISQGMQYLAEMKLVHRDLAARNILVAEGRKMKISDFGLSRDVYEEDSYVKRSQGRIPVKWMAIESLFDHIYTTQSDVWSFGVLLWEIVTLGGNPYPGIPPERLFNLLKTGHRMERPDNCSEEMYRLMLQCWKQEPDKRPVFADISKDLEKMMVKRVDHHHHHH

Measured: IC50

T5 sequence (P15056 whole entry): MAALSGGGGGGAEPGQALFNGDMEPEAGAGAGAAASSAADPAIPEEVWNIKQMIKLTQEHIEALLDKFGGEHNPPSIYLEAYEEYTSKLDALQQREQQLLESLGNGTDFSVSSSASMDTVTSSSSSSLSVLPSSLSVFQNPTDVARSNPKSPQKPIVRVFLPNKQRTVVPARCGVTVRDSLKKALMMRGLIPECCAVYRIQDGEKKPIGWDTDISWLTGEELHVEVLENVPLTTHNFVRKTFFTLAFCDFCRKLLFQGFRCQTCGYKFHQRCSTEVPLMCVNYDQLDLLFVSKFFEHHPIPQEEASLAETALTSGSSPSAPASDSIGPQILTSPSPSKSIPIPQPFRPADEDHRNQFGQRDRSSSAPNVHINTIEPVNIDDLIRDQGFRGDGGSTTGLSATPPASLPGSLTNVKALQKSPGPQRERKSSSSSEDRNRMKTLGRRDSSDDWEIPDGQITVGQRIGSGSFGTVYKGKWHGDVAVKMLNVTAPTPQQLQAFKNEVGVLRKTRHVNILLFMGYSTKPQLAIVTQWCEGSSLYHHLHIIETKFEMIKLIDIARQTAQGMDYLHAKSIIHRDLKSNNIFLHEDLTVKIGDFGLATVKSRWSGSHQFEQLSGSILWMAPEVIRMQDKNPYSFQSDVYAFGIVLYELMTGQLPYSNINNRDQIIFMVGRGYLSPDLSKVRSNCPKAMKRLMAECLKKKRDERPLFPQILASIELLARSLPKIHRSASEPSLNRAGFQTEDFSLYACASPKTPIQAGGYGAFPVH
T6 sequence (P11362 458-765 C488A/C584S): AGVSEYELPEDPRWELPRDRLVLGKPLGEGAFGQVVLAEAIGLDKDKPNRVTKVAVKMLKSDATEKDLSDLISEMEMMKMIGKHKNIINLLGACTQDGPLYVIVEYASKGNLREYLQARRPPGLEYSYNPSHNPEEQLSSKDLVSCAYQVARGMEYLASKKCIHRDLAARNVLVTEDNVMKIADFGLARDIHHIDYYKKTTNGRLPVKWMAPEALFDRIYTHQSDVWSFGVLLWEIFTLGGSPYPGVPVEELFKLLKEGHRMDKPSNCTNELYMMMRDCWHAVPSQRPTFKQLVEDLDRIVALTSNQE
T3 sequence (P15056 with tags, fused parts or gaps V600E): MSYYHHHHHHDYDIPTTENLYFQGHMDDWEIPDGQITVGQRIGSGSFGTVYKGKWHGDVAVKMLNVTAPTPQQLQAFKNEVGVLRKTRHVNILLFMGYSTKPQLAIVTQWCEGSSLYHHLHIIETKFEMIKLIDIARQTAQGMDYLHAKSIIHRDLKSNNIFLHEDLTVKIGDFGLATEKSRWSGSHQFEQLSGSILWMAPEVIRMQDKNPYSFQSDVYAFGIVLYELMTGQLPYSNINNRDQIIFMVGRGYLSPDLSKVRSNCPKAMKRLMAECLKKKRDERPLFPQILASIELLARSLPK
T4 sequence (P10721 with tags, fused parts or gaps): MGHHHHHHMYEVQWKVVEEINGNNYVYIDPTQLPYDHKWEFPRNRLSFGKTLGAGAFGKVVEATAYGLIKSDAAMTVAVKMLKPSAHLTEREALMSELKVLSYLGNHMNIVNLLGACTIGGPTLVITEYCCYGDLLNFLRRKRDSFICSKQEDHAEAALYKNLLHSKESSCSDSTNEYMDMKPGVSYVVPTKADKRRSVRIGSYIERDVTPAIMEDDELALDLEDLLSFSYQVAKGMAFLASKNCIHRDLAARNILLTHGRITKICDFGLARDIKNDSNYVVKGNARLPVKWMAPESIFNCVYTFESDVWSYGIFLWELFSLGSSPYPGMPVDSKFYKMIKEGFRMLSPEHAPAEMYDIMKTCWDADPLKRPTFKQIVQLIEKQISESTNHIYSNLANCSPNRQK
T2 sequence (P07333 20-972): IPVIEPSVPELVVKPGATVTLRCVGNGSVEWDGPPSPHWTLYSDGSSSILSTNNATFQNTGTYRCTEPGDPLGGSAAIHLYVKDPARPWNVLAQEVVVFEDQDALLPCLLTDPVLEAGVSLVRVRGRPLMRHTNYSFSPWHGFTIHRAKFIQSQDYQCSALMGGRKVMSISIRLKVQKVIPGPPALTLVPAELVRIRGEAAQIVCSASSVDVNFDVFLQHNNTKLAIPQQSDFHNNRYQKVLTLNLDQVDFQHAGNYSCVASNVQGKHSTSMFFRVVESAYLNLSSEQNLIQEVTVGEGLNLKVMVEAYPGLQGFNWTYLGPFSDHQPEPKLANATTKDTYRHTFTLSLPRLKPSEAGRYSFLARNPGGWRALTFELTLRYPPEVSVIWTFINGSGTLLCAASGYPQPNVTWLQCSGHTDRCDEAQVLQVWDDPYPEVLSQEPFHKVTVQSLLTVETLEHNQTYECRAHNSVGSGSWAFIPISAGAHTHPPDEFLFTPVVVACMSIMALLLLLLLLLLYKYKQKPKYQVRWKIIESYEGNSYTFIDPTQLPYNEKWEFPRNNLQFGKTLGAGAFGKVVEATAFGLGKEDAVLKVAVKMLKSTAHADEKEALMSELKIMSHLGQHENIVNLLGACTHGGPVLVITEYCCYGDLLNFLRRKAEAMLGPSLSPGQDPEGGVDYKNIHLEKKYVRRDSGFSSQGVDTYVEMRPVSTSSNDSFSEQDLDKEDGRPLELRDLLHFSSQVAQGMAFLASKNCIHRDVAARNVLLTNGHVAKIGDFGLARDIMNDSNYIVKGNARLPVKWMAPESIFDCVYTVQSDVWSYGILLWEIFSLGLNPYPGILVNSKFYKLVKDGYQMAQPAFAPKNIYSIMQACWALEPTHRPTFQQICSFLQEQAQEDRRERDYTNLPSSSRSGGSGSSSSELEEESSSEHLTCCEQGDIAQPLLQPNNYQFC
T7 sequence (P04049 whole entry): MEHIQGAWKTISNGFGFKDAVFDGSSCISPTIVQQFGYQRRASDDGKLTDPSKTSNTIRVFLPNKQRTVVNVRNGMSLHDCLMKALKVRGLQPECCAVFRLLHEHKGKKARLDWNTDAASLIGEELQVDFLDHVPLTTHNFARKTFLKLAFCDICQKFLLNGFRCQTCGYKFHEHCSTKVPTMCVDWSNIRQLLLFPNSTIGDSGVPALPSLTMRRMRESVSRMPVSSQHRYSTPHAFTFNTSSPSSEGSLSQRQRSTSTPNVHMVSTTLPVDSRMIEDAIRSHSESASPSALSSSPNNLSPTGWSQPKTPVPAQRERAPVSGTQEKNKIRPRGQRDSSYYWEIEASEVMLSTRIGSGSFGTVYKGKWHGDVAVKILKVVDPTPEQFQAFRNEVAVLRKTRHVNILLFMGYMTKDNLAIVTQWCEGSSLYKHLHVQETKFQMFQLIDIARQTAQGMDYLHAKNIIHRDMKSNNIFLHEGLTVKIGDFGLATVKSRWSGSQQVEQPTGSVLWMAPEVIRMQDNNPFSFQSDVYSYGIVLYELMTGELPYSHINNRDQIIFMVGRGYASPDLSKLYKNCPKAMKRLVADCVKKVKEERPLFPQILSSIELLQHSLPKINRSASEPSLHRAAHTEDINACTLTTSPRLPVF

CCCS(=O)(=O)Nc1ccc(F)c(C(=O)c2c[nH]c3ncc(C(=O)OC)cc23)c1F [Compound P-1552, 3-[2,6-difluoro-3-(propane-1-sulfonylamino)-benzoyl]-1H-pyrrolo[2,3-b]pyridine-5-carboxylic acid methyl ester]
≤ 10 µM: Flt1 | Fms | B-Raf V600E | Kit | B-Raf

CCCS(=O)(=O)Nc1ccc(F)c(C(=O)c2c[nH]c3ncc(C(=O)O)cc23)c1F [Compound P-1559, 3-[2,6-difluoro-3-(propane-1-sulfonylamino)-benzoyl]-1H-pyrrolo[2,3-b]pyridine-5-carboxylic acid]
≤ 10 µM: Flt1 | Fms | B-Raf V600E | Kit | B-Raf

O=C(c1c(F)ccc(OC(F)F)c1F)c1c[nH]c2ncc(-c3cccnc3)cc12 [Compound P-1528, (3-Difluoromethoxy-2,6-difluoro-phenyl)-(5-pyridin-3-yl-1H-pyrrolo[2,3-b]pyridin-3-yl)-methanone]
not listed: c-Raf-1 | Ret
≤ 10 µM: all other assays above

CCCCN(C)C(=O)Nc1ccc(F)c(C(=O)c2c[nH]c3ncc(Cl)cc23)c1F [Compound P-1612, 1-Butyl-3-[3-(5-chloro-1H-pyrrolo[2,3-b]pyridine-3-carbonyl)-2,4-difluoro-phenyl]-1-methyl-urea]
≤ 10 µM: Flt1 | Fms | B-Raf V600E | B-Raf

COc1cnc2[nH]cc(C(=O)c3c(F)ccc(NS(=O)(=O)c4cccc(C(F)(F)F)c4)c3F)c2c1 [Compound P-1598, N-[2,4-Difluoro-3-(5-methoxy-1H-pyrrolo[2,3-b]pyridine-3-carbonyl)-phenyl]-3-trifluoromethyl-benzenesulfonamide]
≤ 10 µM: Flt1 | Fms | B-Raf V600E | Kit | B-Raf

Nc1cccc(C(=O)c2c[nH]c3ncc(-c4cccc(OC(F)(F)F)c4)cc23)c1 [Compound P-1593]
≤ 10 µM: Flt1 | Kit | FGFR1 | B-Raf

Cc1c(NS(=O)(=O)N(C)C)cccc1C(=O)c1c[nH]c2ncc(Br)cc12 [Compound P-1609]
≤ 10 µM: Flt1 | Fms | B-Raf V600E | FGFR1 | B-Raf

O=C(NCCN1CCOCC1)Nc1ccc(F)c(C(=O)c2c[nH]c3ncc(Cl)cc23)c1F [Compound P-1580, 1-[3-(5-Chloro-1H-pyrrolo[2,3-b]pyridine-3-carbonyl)-2,4-difluoro-phenyl]-3-(2-morpholin-4-yl-ethyl)-urea]
≤ 10 µM: Flt1 | Fms | Kit | B-Raf

CS(=O)(=O)Nc1cccc(-c2cnc3[nH]cc(C(=O)c4cccc(OC(F)F)c4)c3c2)c1 [Compound P-1430, N-{3-[3-(3-Difluoromethoxy-benzoyl)-1H-pyrrolo[2,3-b]pyridin-5-yl]-phenyl}-methanesulfonamide]
not listed: c-Raf-1 | Ret
≤ 10 µM: all other assays above

O=C(c1c(F)ccc(OC(F)F)c1F)c1c[nH]c2ncc(Br)cc12 [Compound P-1526, (5-Bromo-1H-pyrrolo[2,3-b]pyridin-3-yl)-(3-difluoromethoxy-2,6-difluoro-phenyl)-methanone]
not listed: c-Raf-1 | Ret
≤ 10 µM: all other assays above

COc1ccnc2[nH]cc(Cc3ccc(NCc4ccc(C(F)(F)F)cc4)nc3)c12 [Compound P-1110]
≤ 10 µM: Flt1 | Fms | FGFR1 | B-Raf

CCCNC(=O)c1ccc(OC)c(C(=O)c2c[nH]c3ncc(-c4cccnc4)cc23)c1F [Compound P-1077]
≤ 10 µM: c-Raf-1

O=C(c1c(F)ccc(NS(=O)(=O)c2cccc(C(F)(F)F)c2)c1F)c1c[nH]c2ncc(Cl)cc12 [Compound P-1599, N-[3-(5-Chloro-1H-pyrrolo[2,3-b]pyridine-3-carbonyl)-2,4-difluoro-phenyl]-3-trifluoromethyl-benzenesulfonamide]
≤ 10 µM: Flt1 | Fms | B-Raf V600E | Kit | B-Raf

CCCS(=O)(=O)Nc1ccc(F)c(C(=O)c2c[nH]c3ncc(-c4cccc(F)c4)cc23)c1F [Compound P-1259, Propane-1-sulfonic acid {2,4-difluoro-3-[5-(3-fluoro-phenyl)-1H-pyrrolo[2,3-b]pyridine-3-carbonyl]-phenyl}-amide]
not listed: c-Raf-1 | Ret
≤ 10 µM: all other assays above

CS(=O)(=O)Nc1ccc(F)c(Cc2c[nH]c3ncc(-c4cccnc4)cc23)c1F [Compound P-1605, N-[2,4-Difluoro-3-(5-pyridin-3-yl-1H-pyrrolo[2,3-b]pyridin-3-ylmethyl)-phenyl]-methanesulfonamide]
≤ 10 µM: Flt1 | B-Raf V600E | Kit | FGFR1 | B-Raf

CCCS(=O)(=O)Nc1cccc(C(=O)c2c[nH]c3ncc(Br)cc23)c1C [Compound P-1608]
≤ 10 µM: Flt1 | Fms | B-Raf V600E | FGFR1 | B-Raf

CC(C)Oc1cccc(Nc2ccnc3[nH]ccc23)c1 [Compound P-1079]
≤ 10 µM: c-Raf-1

Cc1cc(C(=O)c2c[nH]c3ncc(-c4ccc(C(N)=O)cc4)cc23)nn1C [Compound P-0749]
≤ 10 µM: Flt1 | Kit | Ret | FGFR1

COc1cnc2[nH]cc(C(=O)c3c(F)ccc(NS(=O)(=O)c4ccc(F)cc4)c3F)c2c1 [Compound P-1582, N-[2,4-Difluoro-3-(5-methoxy-1H-pyrrolo[2,3-b]pyridine-3-carbonyl)-phenyl]-4-fluoro-benzenesulfonamide]
≤ 10 µM: Flt1 | B-Raf V600E | Kit | FGFR1 | B-Raf

CCCCNC(=O)Nc1ccc(F)c(C(=O)c2c[nH]c3ncc(Cl)cc23)c1F [Compound P-1586, 1-Butyl-3-[3-(5-chloro-1H-pyrrolo[2,3-b]pyridine-3-carbonyl)-2,4-difluoro-phenyl]-urea]
≤ 10 µM: Flt1 | Fms | B-Raf V600E | B-Raf
